According to PMC8733726, “Dioctanoyl Ultrashort Tetrabasic β-Peptides Sensitize Multidrug-Resistant Gram-Negative Bacteria to Novobiocin and Rifampicin” (Frontiers in Microbiology, 2021):
In brackets after ≈: the same amount, converted by molar mass. Where two headings read alike, the source gives them in different places.

Experiments:
[1] = system: MDR P. aeruginosa clinical isolates; test: Resistance phenotype (MICs of antibiotics) of MDR clinical isolates; format: cell-based, Pseudomonas aeruginosa; details: Pseudomonas aeruginosa
[2] = system: wild-type A. baumannii ATCC 17978; test: Checkerboard assay; format: cell-based, Acinetobacter baumannii; details: ATCC 17978; for MICcombo: antibiotic with dUSTBβP 3 at 8 μg/mL; for MIC: Acinetobacter baumannii, ATCC17978, 18 h, antibiotic alone (Supplementary Table 7), read-out: MICantibiotic
From the text: (§1) Overnight-grown bacterial culture diluted in saline to 0.5 McFarland turbidity was successively diluted 1:50 in MHB to achieve a final concentration of 5 × 10^5 CFU/mL for inoculation. The antibiotic and adjuvant were serially diluted 2-fold along the x-axis and y-axis, respectively, resulting in varying concentrations of both agents in each well. […] Confirmation of turbidity was done using an EMax Plus microplate reader (Molecular Devices, United States) at a wavelength of 590 nm. Wells comprising MHB alone or in the presence of bacterial cells were used as negative or positive controls, respectively. Fractional inhibitory concentration index (FICI) is determined by adding the FICs of both antibiotic and adjuvant. The FIC of the antibiotic is calculated by dividing the MIC of the antibiotic in the presence of the adjuvant by the MIC of the antibiotic alone. Similarly, the FIC of the adjuvant is calculated by dividing the MIC of the adjuvant in the presence of the antibiotic by the MIC of the adjuvant alone.

[3] = system: MDR E. coli clinical isolates; test: Resistance phenotype (MICs of antibiotics) of MDR clinical isolates; format: cell-based, Escherichia coli; details: Escherichia coli, read-out: MIC
[4] = system: MDR E. cloacae clinical isolates; test: as above; format: cell-based, Enterobacter cloacae; details: Enterobacter cloacae, read-out: MIC
[5] = system: wild-type E. coli ATCC 25922; test: microbe, parasite or virus in culture; format: cell-based, Escherichia coli; details: ATCC 25922; for MICcombo: antibiotic with dUSTBβP 3 at 8 μg/mL; for MIC: Escherichia coli, ATCC25922, 18 h, antibiotic alone (Supplementary Table 7), read-out: MICantibiotic
Procedure: The adjuvant activities of dUSTBβPs were evaluated using checkerboard assay as previously described ([Berry et al., 2019]). Overnight-grown bacterial culture diluted in saline to 0.5 McFarland turbidity was successively diluted 1:50 in MHB to achieve a final concentration of 5 × 10^5 CFU/mL for inoculation. The antibiotic and adjuvant were serially diluted 2-fold along the x-axis and y-axis, respectively, resulting in varying concentrations of both agents in each well. Subsequently, the 96-well plate was incubated with equal volumes of bacterial inoculum at 37°C for 18 h. Confirmation of turbidity was done using an EMax Plus microplate reader (Molecular Devices, United States) at a wavelength of 590 nm. Wells comprising MHB alone or in the presence of bacterial cells were used as negative or positive controls, respectively. Fractional inhibitory concentration index (FICI) is determined by adding the FICs of both antibiotic and adjuvant. The FIC of the antibiotic is calculated by dividing the MIC of the antibiotic in the presence of the adjuvant by the MIC of the antibiotic alone. Similarly, the FIC of the adjuvant is calculated by dividing the MIC of the adjuvant in the presence of the antibiotic by the MIC of the adjuvant alone. FICI ≤ 0.5, 0.5 < x ≤ 4, and >4 were deemed synergistic, additive, and antagonistic, respectively ([Meletiadis et al., 2010]).

[6] = system: wild-type P. aeruginosa PAO1; test: microbe, parasite or virus in culture; format: cell-based, Pseudomonas aeruginosa; details: PAO1; for MICcombo: antibiotic with dUSTBβP 3 at 8 μg/mL; for MIC: Pseudomonas aeruginosa, 18 h, antibiotic alone (Supplementary Table 7), read-out: MICantibiotic
From the text: as §1

[7] = system: MDR K. pneumoniae clinical isolates; test: Resistance phenotype (MICs of antibiotics) of MDR clinical isolates; format: cell-based, Klebsiella pneumoniae; details: Klebsiella pneumoniae
[8] = system: MDR A. baumannii clinical isolates; test: as above; format: cell-based, Acinetobacter baumannii; details: Acinetobacter baumannii, read-out: MIC

Row | SMILES | MIC ([1]; 259-96196, read-out: MIC) | MIC ([1]; 262-101856, read-out: MIC) | MIC ([1]; 264-104354, read-out: MIC) | MIC ([1]; 114228, read-out: MIC) | MICcombo [2] | MIC [2] | MIC ([3]; 94393 (mcr-1 +)) | MIC ([3]; 94474 (mcr-1 +)) | MIC [3]; 107115 | MIC [4]; 117029 | MIC [4]; 118564 | MIC [4]; 121187 | MICcombo [5] | MIC [5] | MICcombo [6] | MIC [6] | MIC ([7]; 113250, read-out: MIC) | MIC ([7]; 113254, read-out: MIC) | MIC ([7]; 116381, read-out: MIC) | MIC ([8]; LAC-4) | also measured
1 | C[C@H]1[C@H](NC(=O)/C(=N\OC(C)(C)C(=O)O)c2csc(N)n2)C(=O)N1S(=O)(=O)O [Aztreonam] | 32 µg/mL (≈ 73.5 µM) | 32 µg/mL (≈ 73.5 µM) | 64 µg/mL (≈ 147 µM) | 32 µg/mL (≈ 73.5 µM) | 32 µg/mL | 64 µg/mL | ≤ 0.12 µg/mL | ≤ 0.12 µg/mL | > 64 µg/mL | ≤ 0.12 µg/mL | ≤ 0.12 µg/mL | ≤ 0.12 µg/mL | 0.063 µg/mL | 0.25 µg/mL | 4 µg/mL | 4 µg/mL (≈ 9.19 µM) | ≤ 0.12 µg/mL | ≤ 0.12 µg/mL | 16 µg/mL (≈ 36.7 µM) |  | 
2 | CC(C)(O/N=C(\C(=O)N[C@@H]1C(=O)N2C(C(=O)[O-])=C(C[n+]3ccccc3)CS[C@H]12)c1csc(N)n1)C(=O)O [Ceftazidime] |  | 16 µg/mL (≈ 29.3 µM) |  | 8 µg/mL (≈ 14.6 µM) | 8 µg/mL | 16 µg/mL | ≤ 0.25 µg/mL | 0.5 µg/mL (≈ 0.915 µM) | > 32 µg/mL | 0.5 µg/mL (≈ 0.915 µM) | 0.5 µg/mL (≈ 0.915 µM) | 0.5 µg/mL (≈ 0.915 µM) | 0.063 µg/mL | 0.25 µg/mL | 2 µg/mL | 2 µg/mL (≈ 3.66 µM) | 0.5 µg/mL (≈ 0.915 µM) | ≤ 0.2 µg/mL | 8 µg/mL (≈ 14.6 µM) | > 16 µg/mL | MIC ([1]; 259-96196): 512 µg/mL (≈ 937 µM); MIC ([1]; 264-104354): 128 µg/mL (≈ 234 µM); MIC [1]; 91433: 1020 µg/mL (≈ 1870 µM)
3 | O=C(N[C@H](CO)[C@H](O)c1ccc([N+](=O)[O-])cc1)C(Cl)Cl [Chloramphenicol] |  | 2050 µg/mL (≈ 6340 µM) | 4100 µg/mL (≈ 12700 µM) |  | 64 µg/mL | 128 µg/mL | 4 µg/mL (≈ 12.4 µM) | 4 µg/mL (≈ 12.4 µM) | 512 µg/mL (≈ 1580 µM) | 8 µg/mL (≈ 24.8 µM) |  |  | 1 µg/mL | 2 µg/mL | 2 µg/mL | 32 µg/mL (≈ 99 µM) | 4 µg/mL (≈ 12.4 µM) | 2 µg/mL (≈ 6.19 µM) | > 512 µg/mL | 32 µg/mL (≈ 99 µM) | MIC ([1]; 259-96196): 1020 µg/mL (≈ 3170 µM); MIC ([1]; 91433, read-out: MIC): 8 µg/mL (≈ 24.8 µM); MIC [8]; 110193: 128 µg/mL (≈ 396 µM); MIC ([8]; AB027): 128 µg/mL (≈ 396 µM); MIC ([8]; AB031): 128 µg/mL (≈ 396 µM)
4 | C[C@H]1c2cccc(O)c2C(=O)C2=C(O)[C@]3(O)C(=O)C(C(N)=O)=C(O)[C@@H](N(C)C)[C@@H]3[C@@H](O)[C@@H]21 [Doxycycline] | 32 µg/mL (≈ 72 µM) | 1020 µg/mL (≈ 2300 µM) | 64 µg/mL (≈ 144 µM) | 16 µg/mL (≈ 36 µM) | 0.25 µg/mL | 0.25 µg/mL | 4 µg/mL (≈ 9 µM) | > 32 µg/mL | > 32 µg/mL | > 32 µg/mL | 4 µg/mL (≈ 9 µM) | > 32 µg/mL | 0.25 µg/mL | 1 µg/mL | 0.5 µg/mL | 8 µg/mL (≈ 18 µM) | 2 µg/mL (≈ 4.5 µM) | 128 µg/mL (≈ 288 µM) | 1 µg/mL (≈ 2.25 µM) | < 4 µg/mL | MIC ([1]; 91433, read-out: MIC): 32 µg/mL (≈ 72 µM)
5 | CNC(C)C1CCC(N)C(OC2C(N)CC(N)C(OC3OCC(C)(O)C(NC)C3O)C2O)O1 (stereo not drawn) [Gentamicin] | > 32 µg/mL | > 32 µg/mL | > 32 µg/mL |  | > 1 µg/mL | > 1 µg/mL | ≤ 0.5 µg/mL | 16 µg/mL (≈ 33.5 µM) | > 32 µg/mL | ≤ 0.5 µg/mL | 1 µg/mL (≈ 2.09 µM) | > 32 µg/mL | 1 µg/mL | 2 µg/mL | 2 µg/mL | 2 µg/mL (≈ 4.19 µM) | ≤ 0.5 µg/mL | ≤ 0.5 µg/mL | ≤ 0.5 µg/mL | > 4 µg/mL | MIC ([1]; 91433, read-out: MIC): 32 µg/mL (≈ 67 µM); MIC ([8]; AB027): 32 µg/mL (≈ 67 µM); MIC ([8]; AB031): < 0.5 µg/mL
6 | C[C@H]1COc2c(N3CCN(C)CC3)c(F)cc3c(=O)c(C(=O)O)cn1c23 [Levofloxacin] | 256 µg/mL (≈ 708 µM) | 64 µg/mL (≈ 177 µM) | 64 µg/mL (≈ 177 µM) |  | 0.25 µg/mL | 0.25 µg/mL | 1 µg/mL (≈ 2.77 µM) | 32 µg/mL (≈ 88.6 µM) | 32 µg/mL (≈ 88.6 µM) |  |  |  | 0.002 µg/mL | 0.008 µg/mL | 0.25 µg/mL | 0.5 µg/mL (≈ 1.38 µM) |  |  |  | 2 µg/mL (≈ 5.53 µM) | MIC [8]; 110193: ≤ 1 µg/mL; MIC ([8]; AB027): 8 µg/mL (≈ 22.1 µM); MIC ([8]; AB031): 0.25 µg/mL (≈ 0.692 µM); MIC [7]; 113250: 0.125 µg/mL (≈ 0.346 µM); MIC [7]; 113254: 0.0625 µg/mL (≈ 0.173 µM); MIC [7]; 116381: 128 µg/mL (≈ 354 µM)
